The test system of assay [1] is C. albicans. Kind of assay: Resistance study (repeated exposure). The class given is cell-based, Candida albicans. The settings on record: SDwoz medium, 36-day period, 22 passages. The method, then: The propensity for resistance development was investigated as also described previously ([41]), but with the following modifications. […] Over a 36-day period, culture aliquots of 100 μl were periodically (every 1 to 2 days) transferred (passaged) to new culture tubes with 900 μl of fresh medium and fresh compound. […] Cells were passaged a total of 22 times, and cultures were periodically tested for antifungal susceptibility by following the protocol for antifungal susceptibility testing, as described above.

Assay [2] deals with Candida albicans SC5314. As to the kind of experiment: In vivo fungal kidney burden candidiasis model. Also on record: species or system BALB/c mice. Particulars: fluconazole 3 mg/kg p.o. The method, then: A murine model of systemic candidiasis was established according to a previously described method ([44]). BALB/c mice were infected with a 0.1-ml inoculum (1 × 10^5 to 5 × 10^5 CFU) of Candida albicans SC5314 cells by the intravenous route on day 0. Compounds were tested at doses of 60 mg/kg. Administration of compound was initiated 24 h prior (day −1) to infection (day 0) by the intraperitoneal route, dosing twice a day for 4 days (day −1 to day 2). ZAC307 was also evaluated with administration of the compounds given after the infection at day 0 (no pretreatment) and following dosing twice a day for 3 days (days 0 to 2). Fluconazole was used as a comparator drug. Six mice were used for each group, and the untreated control group was exposed to the vehicle alone. ZAC989 and ZAC307 were formulated by taking 60 mg of compound and adding this to 2 ml and 4 ml of 0.1 N NaOH, respectively. After mixing and sonication of the resulting solutions, 4 ml of purified water was added. The pH was adjusted to 9.0 with 0.1 N HCl solution, followed by the addition of 90 mg of NaCl. The solutions were then diluted to 10 ml and filtered through a 0.22-μm polyvinylidene difluoride (PVDF) filter. Sample collection and processing were performed as follows. Twelve hours after the last dose, all treated and untreated animals were sacrificed by cervical dislocation and kidneys were collected in 3 ml of sterile normal saline. The samples were homogenized, serially diluted, and plated on Sabouraud dextrose agar (SDA). SDA plates were incubated for 24 to 48 h at 35°C, and CFU were enumerated and reported as log CFU/kidney. The endpoint was mean log CFU of fungi in kidneys of treated animals compared to that of untreated animals. The study was conducted in conformance with an application submitted to the Committee for the Purpose of Control and Supervision of Experiments on Animals (CPCSEA), New Delhi, India, after approval from the Institutional Animal Ethics Committee (IAEC).

For assay [3] the following is noted: cited from earlier work.
A short description of assay [4]: Fluorescence-based competition assay using FluoZin-3 (compound-Zn2+ dissociation constant). The class given is binding. Particulars: FluoZin-3 competition, PBS pH 7.4, room temperature; read-out: Compound-Zn^2+ KD. As to the method: The dissociation constant (Kd) of zinc to zinc-attenuating compounds was determined at room temperature using FluoZin-3 (F24194; […] Testing buffer consisted of PBS (pH 7.4) with 200 nM ZnCl2 and 500 nM FluoZin-3. In a microtiter plate, 98 μl of testing buffer was mixed with 2 μl of compound at a range of concentrations to determine the half-maximal inhibitory concentration (IC50). Testing plates were incubated for 2 min before being read at an excitation wavelength of 485 nm and an emission wavelength of 516 nm with a Fluoroskan Ascent microplate fluorometer (Thermo Fisher Scientific).

Assay [5] has as its system C. albicans SC5314. Kind of assay: Antifungal susceptibility testing (MIC). The format is cell-based, Candida albicans. As to the method: (§1) Antifungal susceptibility testing was carried out as described previously ([38], [39]), with a few modifications. Briefly, for each yeast or mold growth inhibition assay, frozen stocks of yeast cells or spores were diluted to a final concentration of 0.5 × 10^5 to 2.5 × 10^5 CFU/ml in sterile water. ZAC989, ZAC307, and ZAC623 were dissolved in DMSO to 10 mM stocks from which half-log serial dilutions were prepared. Growth assays were subsequently performed by pipetting 3 μl of compound dissolved in DMSO (giving a final concentration of 1.5% DMSO), 100 μl of cell-spore suspension, and 97 μl of 2× RPMI medium (20.8 g/liter of RPMI 1640 medium, 69.06 g/liter of morpholinepropanesulfonic acid [MOPS], 36 g/liter of glucose) into a microtiter plate that was incubated for 24 h (yeasts) or 48 to 72 h (molds) at 34°C. Fungal growth was determined spectrophotometrically by optical density reading of each well at a wavelength of 492 nm on a Victor X5 (Perkin-Elmer) plate reader. […] Standard errors between repeated experiments were generally below 5%. The growth effect of exogenous addition of various divalent metals was evaluated by performing the antifungal susceptibility assay in the presence of 5 μM ZAC989 or ZAC307 and with increasing concentrations (0.003 to 50 μM) of ZnSO4, CuSO4, (NH4)2Fe(SO4)2, MgCl2, and CaCl2.

The subject of assay [6] is C. parapsilosis ATCC 22019. Kind of assay: Antifungal susceptibility testing (MIC). The class given is cell-based, Candida parapsilosis. The settings on record: Lodderomyces parapsilosis, ATCC22019; at least 50% growth inhibition, RPMI, 24 h, 34°C. As to the method:
as §1

For assay [7], the system named is C. krusei ATCC 6258. Kind of assay: Antifungal susceptibility testing (MIC). The class given is cell-based, Candida krusei. The settings on record: Pichia kudriavzevii, ATCC6258; at least 50% growth inhibition, RPMI, 24 h, 34°C. As to the method:
as §1

Assay [8] relates to C. albicans SC5314. Kind of assay: Time-kill assay. The class given is cell-based, Candida albicans. The settings on record: 0.5 μg/ml AMB, 3.6 μg/ml ZAC989, 4.4 μg/ml EDTA, 4.2 μg/ml TPEN; up to 24 h. As to the method:
C. albicans SC5314 cells (10^5 CFU/ml) were incubated in 10 ml of RPMI medium at 30°C with gentle agitation (150 rpm) in the presence of EDTA (15 μM), TPEN (10 μM), ZAC989 (10 μM), or AMB (0.5 μM). At the desired time points (0, 3, 5.5, and 24 h), a 100-μl aliquot was removed for each test condition and serially diluted (10-fold) in saline (0.9% NaCl), and 30 μl of each dilution was plated on YPD agar plates. The colony count on each YPD plate was determined after incubation at 30°C for 48 h ([40]). C. albicans cells treated with DMSO (1%, vol/vol) served as a control.

Assay [9] concerns A. fumigatus. Also on record: method as in PMID 27401578. Particulars: monotherapy; cited from earlier work.

Read-outs that look alike come from different tables or passages of the source. Some results are limits rather than exact numbers.

Take `OC(Cn1cncn1)(Cn1cncn1)c1ccc(F)cc1F` [Fluconazole, fluconazole, reference compound]: in assay [1], the “change in the MIC after repeated exposure” value is given as “significant increase in the MIC”. Besides, the “Mean log CFU/kidney” value in [2] is listed as 3.02 ± 0.22 log CFU/kidney. Further, the “Mean log CFU/kidney reduction” value in assay [2] (vs untreated control) stood at 2.78 log CFU/kidney.

On to `COc1ccc(N(CC(=O)O)CC(=O)O)c(OCCOc2cc(-c3c4cc(F)c(=O)cc-4oc4cc(O)c(F)cc34)ccc2NCC(=O)O)c1` [FluoZin-3], for which the Kd in assay [3] (read-out: Kd (FluoZin-3–Zn^2+)) is 15 nM.

For `Cc1cc(N)n(-c2cc(N3CC[C@H](Oc4cnccc4C#N)C3)ncn2)n1` [ZAC623, 3-[(3S)-1-[6-(5-amino-3-methyl-pyrazol-1-yl)pyrimidin-4-yl]pyrrolidin-3-yl]oxypyri-dine-4-carbonitrile], in [4], the Kd is greater than 6000 nM. For the same compound, the “growth-inhibitory activity (in words)” value in [5] is on record as “did not display growth-inhibitory activity”. In addition, the MIC in assay [5] (Candida albicans, SC5314, 24 h, at least 50% growth inhibition, RPMI, 24 h, 34°C, read-out: MIC) is greater than 54 µg/mL; in [6] it was greater than 54 µg/mL; in assay [7], greater than 54 µg/mL.

Regarding `COc1cc(O)c(-c2nc3c(CNCc4ccccn4)cccc3o2)cc1OC` [Zinbo-5], the Kd in [3] (read-out: affinity constant for zinc) is 2.2 nM.

As for `C[C@@H]1[C@H](O)[C@@H](C)/C=C/C=C/C=C/C=C/C=C/C=C/C=C/[C@H](O[C@@H]2O[C@H](C)[C@@H](O)[C@H](N)[C@@H]2O)C[C@@H]2O[C@](O)(C[C@@H](O)C[C@@H](O)[C@H](O)CC[C@@H](O)C[C@@H](O)CC(=O)O[C@H]1C)C[C@H](O)[C@H]2C(=O)O` [amphotericin B], in assay [8], the “time-kill activity (fungistatic or fungicidal)” value was “fungicidal activity after 3 h of exposure”.

As for `c1cnc2c(c1)ccc1cccnc12` [phenanthroline], the “survival and fungal burden” value in assay [9] is “significant improvements in survival with concomitant reduction in fungal burden”.

As usually defined, the MIC is the lowest concentration that inhibits growth of the organism.

The record behind these values is publication PMC5923171, “Novel Zinc-Attenuating Compounds as Potent Broad-Spectrum Antifungal Agents with In Vitro and In Vivo Efficacy” (Antimicrobial Agents and Chemotherapy, 2018).
